Measurements as given in US20170151295A1, “USE OF CHI-JU-DI-HUANG-WAN IN TREATING RETINAL ISCHEMIA OR A DISEASE, CONDITION, OR DISORDER ASSOCIATED WITH RETINAL ISCHEMIA” (priority 2015, published 2017).

How the values were obtained:
Format in all cases: in vivo, Wistar rats
[1] = test system: MMP-9; assay: Gel zymography, retinal MMP-9 activity after I/R; details: intravitreal 2 nmole 15 min before ischemia, 24 h after ischemia
[2] = test system: MMP-9; assay: Western blotting, retinal MMP-9 after I/R; details: intravitreal 2 nmole 15 min before ischemia, I/R 24 h
[3] = test system: P-p38 MAPK; assay: Western blotting, retinal P-p38 MAPK after I/R; details: intravitreal 2 nmole 15 min before ischemia, I/R 24 h
Experimental: Intravitreal injections were performed using a 30-gauge needle attached to a 25 μl syringe after pupil dilation with 1% tropicamide and 2.5% phenylephrine. In certain instances, intravitreal injections of 4 μl of 2 nmole SB203580 (Calbiochem, San Diego, Calif.) or vehicle (an equal volume of DMSO) were performed on ischemic eyes fifteen minutes before pressure-induced retinal ischemia.
One day following retinal ischemia with preadministration of relevant compounds or following a sham procedure, the animals were sacrificed. Retinal samples were retrieved and sonicated in a lysis buffer, mammalian protein extraction reagent (Pierce, Ill.).

C[S+]([O-])c1ccc(-c2nc(-c3ccncc3)c(-c3ccc(F)cc3)[nH]2)cc1 (stereo not drawn) [SB203580]
MMP-9/β-actin (gel zymography, MMP-9 activity) [1]: 1.49 ± 0.21
MMP-9/β-actin protein ratio (Western blotting) [2]: 0.31 ± 0.10
P-p38/β-actin protein ratio [3]: 0.23 ± 0.05
